System: AML MV4-11 cells
Test: siRNA uptake in AML MV4-11 cells by imaging flow cytometry
Type: cell-based
Experimental: AML MV4-11 cells in growth medium (RPMI 1640 with 10% FBS) were incubated with Duplex-27 (500 nM) for 1 hour at 37° C. For determining VLA-4 independent binding, 140 (10 μM) was included in one condition to block VLA-4 dependent binding. After incubation, the cells were then washed twice with D-PBS and fixed in 1% paraformaldehyde for 10 minutes. The uptake of siRNA was analyzed by imaging flow cytometry using ImageStreamx (Aminis Corporation, Seattle).

With `Cc1cccc(Cl)c1C(=O)N[C@@H](Cc1ccc(NC(=O)c2c(Cl)cccc2Cl)cc1)C(=O)O` [Example 140] the “Mean Cy3 intensity” value (140 alone at 10 μM, 1 hour at 37° C.) was 663 and the “effect on the histograph shift of the VLA-4-targeted siRNA duplex” value (VLA-4 antagonist 140 present) was “this shift is oblated”.

— patent US9447035B2, “Integrin antagonist conjugates for targeted delivery to cells expressing VLA-4” (Hoffmann-La Roche Inc., priority 2012, dated 2016)
